Article PMC11864979, “First-in-class ultralong-target-residence-time p38α inhibitors as a mitosis-targeted therapy for colorectal cancer” (Nature Cancer, 2025)
Read-outs that look alike come from different tables or passages of the source.

Assays:
Assay in all cases: selectivity profiling in a panel of 340 wild-type kinases (Reaction Biology Europe)
Format in all cases: binding
[1] = target: T1, 340 wild-type kinases (Homo sapiens, UniProt Q9Y4K4)
T1 construct: purchased Reaction Biology Europe
T1 sequence (Q9Y4K4 whole entry): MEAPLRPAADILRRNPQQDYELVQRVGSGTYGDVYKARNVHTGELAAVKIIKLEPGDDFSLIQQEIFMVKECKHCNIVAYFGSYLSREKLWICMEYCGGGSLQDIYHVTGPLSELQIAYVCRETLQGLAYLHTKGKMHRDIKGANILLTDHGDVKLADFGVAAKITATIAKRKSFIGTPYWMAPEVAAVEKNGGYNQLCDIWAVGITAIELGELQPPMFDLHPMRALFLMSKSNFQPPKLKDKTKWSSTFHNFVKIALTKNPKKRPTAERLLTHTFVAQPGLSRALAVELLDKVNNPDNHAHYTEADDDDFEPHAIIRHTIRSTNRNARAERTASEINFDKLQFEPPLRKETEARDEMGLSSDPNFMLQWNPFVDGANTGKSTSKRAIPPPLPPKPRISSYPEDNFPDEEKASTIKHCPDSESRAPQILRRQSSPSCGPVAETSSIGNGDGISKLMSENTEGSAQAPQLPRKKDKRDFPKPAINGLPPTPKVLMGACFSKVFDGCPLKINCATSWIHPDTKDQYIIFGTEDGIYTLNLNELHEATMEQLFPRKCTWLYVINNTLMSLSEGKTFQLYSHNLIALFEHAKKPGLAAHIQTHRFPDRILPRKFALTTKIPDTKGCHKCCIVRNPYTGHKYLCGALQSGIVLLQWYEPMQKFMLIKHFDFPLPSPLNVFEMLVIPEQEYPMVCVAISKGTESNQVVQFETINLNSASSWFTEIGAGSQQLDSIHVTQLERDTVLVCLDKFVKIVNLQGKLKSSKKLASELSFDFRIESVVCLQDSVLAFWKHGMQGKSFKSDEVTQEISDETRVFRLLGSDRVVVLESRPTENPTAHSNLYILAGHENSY

[2] = target: T2, 340 wild-type kinases (Homo sapiens, UniProt P05771)
T2 construct: purchased Reaction Biology Europe

[3] = target: T3, 340 wild-type kinases (Homo sapiens, UniProt Q9NR20)
T3 construct: purchased Reaction Biology Europe
T3 sequence (Q9NR20 1-520): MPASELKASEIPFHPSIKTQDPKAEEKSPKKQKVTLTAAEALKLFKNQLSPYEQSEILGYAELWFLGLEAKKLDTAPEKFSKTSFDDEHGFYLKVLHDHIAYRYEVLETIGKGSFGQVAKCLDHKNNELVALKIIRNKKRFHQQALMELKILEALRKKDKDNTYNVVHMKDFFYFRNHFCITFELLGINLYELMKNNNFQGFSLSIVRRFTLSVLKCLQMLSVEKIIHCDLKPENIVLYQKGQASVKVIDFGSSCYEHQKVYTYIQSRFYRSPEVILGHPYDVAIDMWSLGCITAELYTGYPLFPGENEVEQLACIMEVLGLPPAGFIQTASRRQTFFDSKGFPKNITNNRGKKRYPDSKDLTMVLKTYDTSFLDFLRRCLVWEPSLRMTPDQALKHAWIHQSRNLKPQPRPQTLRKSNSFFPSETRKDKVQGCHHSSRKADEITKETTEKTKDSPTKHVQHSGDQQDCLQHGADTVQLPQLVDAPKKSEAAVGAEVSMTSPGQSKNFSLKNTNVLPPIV

[4] = target: T4, 340 wild-type kinases (Homo sapiens, UniProt P54760)
T4 construct: purchased Reaction Biology Europe
T4 sequence (P54760 16-987): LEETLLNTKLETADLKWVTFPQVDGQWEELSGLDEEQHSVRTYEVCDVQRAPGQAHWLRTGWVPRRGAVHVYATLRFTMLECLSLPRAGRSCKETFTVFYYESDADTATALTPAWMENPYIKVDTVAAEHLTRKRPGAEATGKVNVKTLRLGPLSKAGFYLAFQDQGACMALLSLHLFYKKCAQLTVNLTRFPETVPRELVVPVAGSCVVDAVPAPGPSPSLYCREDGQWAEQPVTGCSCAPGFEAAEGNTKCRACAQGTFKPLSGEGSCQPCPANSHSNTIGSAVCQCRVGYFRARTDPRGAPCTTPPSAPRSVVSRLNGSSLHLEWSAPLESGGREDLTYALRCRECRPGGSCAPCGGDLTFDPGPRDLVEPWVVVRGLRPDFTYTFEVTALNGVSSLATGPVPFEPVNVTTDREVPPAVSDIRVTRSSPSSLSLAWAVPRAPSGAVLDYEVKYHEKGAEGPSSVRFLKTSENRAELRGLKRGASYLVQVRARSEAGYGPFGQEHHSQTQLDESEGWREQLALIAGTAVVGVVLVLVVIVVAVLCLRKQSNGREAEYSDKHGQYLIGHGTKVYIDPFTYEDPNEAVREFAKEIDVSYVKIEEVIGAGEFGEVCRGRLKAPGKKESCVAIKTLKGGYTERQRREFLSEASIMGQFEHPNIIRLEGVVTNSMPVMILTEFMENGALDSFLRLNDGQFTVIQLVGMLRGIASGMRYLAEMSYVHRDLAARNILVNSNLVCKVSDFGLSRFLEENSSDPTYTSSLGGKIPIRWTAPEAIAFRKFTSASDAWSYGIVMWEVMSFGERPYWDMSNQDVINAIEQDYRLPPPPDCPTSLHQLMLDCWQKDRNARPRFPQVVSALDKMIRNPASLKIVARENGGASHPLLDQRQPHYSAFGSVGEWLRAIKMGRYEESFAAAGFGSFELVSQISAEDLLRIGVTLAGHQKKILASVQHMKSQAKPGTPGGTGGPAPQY

[5] = target: T5, 340 wild-type kinases (Homo sapiens, UniProt Q13164)
T5 construct: purchased Reaction Biology Europe
T5 sequence (Q13164 whole entry): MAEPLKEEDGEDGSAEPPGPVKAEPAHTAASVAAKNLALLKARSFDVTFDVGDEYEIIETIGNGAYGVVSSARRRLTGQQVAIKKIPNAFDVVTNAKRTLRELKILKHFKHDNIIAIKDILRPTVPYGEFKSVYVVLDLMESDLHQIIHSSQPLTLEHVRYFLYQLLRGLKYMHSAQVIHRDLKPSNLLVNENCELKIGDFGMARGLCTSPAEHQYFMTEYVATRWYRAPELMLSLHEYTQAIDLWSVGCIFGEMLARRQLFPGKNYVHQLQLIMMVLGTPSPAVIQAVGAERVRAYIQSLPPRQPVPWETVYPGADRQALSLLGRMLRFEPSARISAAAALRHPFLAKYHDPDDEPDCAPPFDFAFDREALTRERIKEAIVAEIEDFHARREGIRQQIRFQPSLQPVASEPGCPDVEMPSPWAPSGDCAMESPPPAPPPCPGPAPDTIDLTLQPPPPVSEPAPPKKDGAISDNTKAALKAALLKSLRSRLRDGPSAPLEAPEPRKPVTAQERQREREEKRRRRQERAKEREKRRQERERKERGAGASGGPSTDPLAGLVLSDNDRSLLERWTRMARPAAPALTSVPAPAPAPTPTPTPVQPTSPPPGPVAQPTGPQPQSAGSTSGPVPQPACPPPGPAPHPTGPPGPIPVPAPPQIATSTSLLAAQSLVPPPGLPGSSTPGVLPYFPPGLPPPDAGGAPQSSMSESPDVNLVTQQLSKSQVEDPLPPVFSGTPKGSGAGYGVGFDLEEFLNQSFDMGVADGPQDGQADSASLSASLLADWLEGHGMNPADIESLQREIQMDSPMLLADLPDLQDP

[6] = target: T6, 340 wild-type kinases (Homo sapiens, UniProt Q9NYY3)
T6 construct: purchased Reaction Biology Europe
T6 sequence (Q9NYY3 whole entry): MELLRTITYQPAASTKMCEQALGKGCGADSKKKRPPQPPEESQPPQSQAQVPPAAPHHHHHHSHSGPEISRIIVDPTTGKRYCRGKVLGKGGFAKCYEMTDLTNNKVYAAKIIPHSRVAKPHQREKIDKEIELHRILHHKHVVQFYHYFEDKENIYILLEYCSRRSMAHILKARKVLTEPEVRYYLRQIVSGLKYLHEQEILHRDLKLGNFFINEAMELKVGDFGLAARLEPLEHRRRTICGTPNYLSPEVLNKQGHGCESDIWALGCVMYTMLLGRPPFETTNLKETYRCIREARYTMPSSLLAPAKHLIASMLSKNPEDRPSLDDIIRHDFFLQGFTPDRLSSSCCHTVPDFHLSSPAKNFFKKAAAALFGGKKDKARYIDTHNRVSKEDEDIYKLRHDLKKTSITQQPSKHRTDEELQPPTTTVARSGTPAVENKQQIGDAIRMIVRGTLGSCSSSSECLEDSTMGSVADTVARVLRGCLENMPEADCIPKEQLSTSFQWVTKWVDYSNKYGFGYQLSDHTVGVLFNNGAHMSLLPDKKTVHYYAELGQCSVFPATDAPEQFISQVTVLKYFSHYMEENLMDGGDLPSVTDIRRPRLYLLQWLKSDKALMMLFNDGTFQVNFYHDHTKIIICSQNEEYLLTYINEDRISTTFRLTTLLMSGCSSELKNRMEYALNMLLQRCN

[7] = read-out: DYRK4 residual activity

CNC(=O)c1ccc2c(c1)C(=O)c1ccc(Nc3ccc(F)c(NC(=O)C4CC4)c3)cc1CC2 [Compound 2015]
remaining activity at 0.2 µM ([1]; 0.2 µM 2015, read-out: MAP4K5 residual activity): 101% | remaining activity at 1 µM ([1]; 1 µM 2015, read-out: MAP4K5 residual activity): 91.4% | remaining activity at 0.2 µM ([1]; MAP4K5, 0.2 µM, read-out: residual activity): 101% | remaining activity at 1 µM ([1]; MAP4K5, 1 µM, read-out: residual activity): 91.4% | remaining activity at 0.2 µM ([2]; 0.2 µM 2015, read-out: PKCbeta1 residual activity): 109% | remaining activity at 1 µM ([2]; 1 µM 2015, read-out: PKCbeta1 residual activity): 100% | remaining activity at 0.2 µM ([2]; PKCbeta1, 0.2 µM, read-out: residual activity): 109% | remaining activity at 1 µM ([2]; PKCbeta1, 1 µM, read-out: residual activity): 100% | remaining activity at 0.2 µM ([2]; PKCbeta2, 0.2 µM, read-out: residual activity): 103% | remaining activity at 1 µM ([2]; PKCbeta2, 1 µM, read-out: residual activity): 109% | remaining activity at 0.2 µM [3, 7]: 108% | remaining activity at 1 µM [3, 7]: 97.1% | remaining activity at 0.2 µM ([3]; read-out: residual activity): 108% | remaining activity at 1 µM ([3]; read-out: residual activity): 97.1% | remaining activity at 0.2 µM ([4]; 0.2 µM 2015, read-out: EPHB4 residual activity): 101% | remaining activity at 1 µM ([4]; 1 µM 2015, read-out: EPHB4 residual activity): 91.8% | remaining activity at 0.2 µM ([4]; EPHB4, 0.2 µM, read-out: residual activity): 101% | remaining activity at 1 µM ([4]; EPHB4, 1 µM, read-out: residual activity): 91.8% | remaining activity at 0.2 µM ([5]; 0.2 µM 2015, read-out: ERK5 residual activity): 112% | remaining activity at 1 µM ([5]; 1 µM 2015, read-out: ERK5 residual activity): 99% | remaining activity at 0.2 µM ([5]; ERK5, 0.2 µM, read-out: residual activity): 112% | remaining activity at 1 µM ([5]; ERK5, 1 µM, read-out: residual activity): 99% | remaining activity at 0.2 µM ([6]; 0.2 µM 2015, read-out: SNK residual activity): 103% | remaining activity at 1 µM ([6]; 1 µM 2015, read-out: SNK residual activity): 97.3% | remaining activity at 0.2 µM ([6]; SNK, 0.2 µM, read-out: residual activity): 103% | remaining activity at 1 µM ([6]; SNK, 1 µM, read-out: residual activity): 97.3%
